Assay results published in patent publication US20190077766A1, “Compositions For APP-Selective BACE Inhibition And Uses Therefor” (NantNeuro, LLC, priority 2015, published 2019).
Values joined by “and” are separate entries in the source; they are usually repeats but may differ in a detail not shown here. Equal values may be shown once. Where a name gives a salt, the structure may show the parent alone. Read-outs that look alike come from different tables or passages of the source.

Columns and labels:
BACE1 = biological target: T1, BACE1 (Homo sapiens, UniProt P56817); assay: in vitro BACE inhibition assay (Primary BACE1 IC50); assay type: biochemical
T1 construct: purchased R&D 931-AS-050
Source text: ABBI Assay: APP Binding BACE Inhibitor (ABBI) activity of any of the compounds described herein can readily be verified using, for example, assays described herein. Basically, in certain embodiments a pair the assays are utilized to identify ABBI compounds that inhibit BACE cleavage of the MBP-C125 APP substrate, resulting in the inhibition of the production of C99 and the β-site peptide substrate (P5-P5′) and also interacts with APP, for example, as measured by surface plasmon resonance (SPR) analysis. In one illustrative embodiment, an MBP-C125 APP695 wt fusion protein can be used as one of the substrates and the second substrate can be the commercially available P5-P5′ fluorescence substrate.

[1] = PAMPA parallel artificial membrane permeability assay; assay type: in vitro ADME; conditions: Table 4
[2] = system: CHO-7W cells that were stably transfected with human APP (wildtype); assay: Secondary cell-based APP processing assay (sAPPalpha, sAPPbeta, Abeta 1-42); conditions: for Aβ1-42 peptide formation / production: cell based; for preference (selectivity) towards APP in BACE inhibition: from Aβ1-42, sAPPβ and sAPPα formation
Source text: Cellular Assays: Numerous cell-based assays can be used to evaluate the activity of agent(s) of interest on relative alpha-secretase activity to beta-secretase activity and/or processing of APP to release amyloidogenic versus non-amyloidogenic oligomers.
Human cell lines that normally process Aβ from APP provide a useful means to assay inhibitory activities of the agent(s). Production and release of Aβ and/or other cleavage products into the culture medium can be measured, for example by immunoassay, such as Western blot or enzyme-linked immunoassay (EIA) such as by ELISA.
Relative activity of the alpha-secretase to the beta-secretase can be measured by analysis of one or more cleavage products of the APP substrate. For example, inhibition of beta-secretase activity against the substrate APP would be expected to decrease release of specific beta-secretase induced APP cleavage products such as Aβ (e.g., Aβ40 or Aβ42), sAPPβ and APPneo. Promotion or enhancement of alpha-secretase activity against the substrate APP would be expected to increase release of specific alpha-secretase induced APP cleavage products such as sAPPα and p3 peptide.
In such assays, for example, the cells expressing APP, alpha-secretase and/or beta-secretase are incubated in a culture medium under conditions suitable for alpha-secretase and/or beta-secretase enzymatic activity at its cleavage site on the APP substrate. On exposure of the cells to the agent(s), the amount of Aβ released into the medium and/or the amount of CTF99 fragments of APP in the cell lysates is reduced as compared with the control. The cleavage products of APP can be analyzed, for example, by immune reactions with specific antibodies, as discussed above.

solubility (Sol) = assay type: physicochemical; conditions: Table 3; in words
[3] = pharmacokinetics, brain level (Cmax brain); assay type: in vivo
Source text: As is readily apparent, not all compounds were equally able to cross the blood brain barrier, but most compounds did reach pharmacologically meaningful levels given their low IC50 values. FIG. 5A provides a further exemplary compound (FAH65) and FIG. 5B depicts dose response data for Aβ1-42 production in a cell based system. Further shown are effects observed with regard to Aβ1-42 production, sAPPβ and sAPPα formation. […] Here, data are presented for oral and subcutaneous administration (SQ) at dosages of 10- and 30 mg/kg. […] Once more, it should be noted that these exemplary compounds are preferential towards APP in BACE inhibition as can be taken from the data for Aβ1-42, sAPPβ, and sAPPα formation.

[4] = Table 4, several values in a cell = several determinations, read-out: BACE1 IC50
[5] = Tables 1 and 2, read-out: Primary BACE1 IC50

T1 sequence (P56817 46-457 limits assumed): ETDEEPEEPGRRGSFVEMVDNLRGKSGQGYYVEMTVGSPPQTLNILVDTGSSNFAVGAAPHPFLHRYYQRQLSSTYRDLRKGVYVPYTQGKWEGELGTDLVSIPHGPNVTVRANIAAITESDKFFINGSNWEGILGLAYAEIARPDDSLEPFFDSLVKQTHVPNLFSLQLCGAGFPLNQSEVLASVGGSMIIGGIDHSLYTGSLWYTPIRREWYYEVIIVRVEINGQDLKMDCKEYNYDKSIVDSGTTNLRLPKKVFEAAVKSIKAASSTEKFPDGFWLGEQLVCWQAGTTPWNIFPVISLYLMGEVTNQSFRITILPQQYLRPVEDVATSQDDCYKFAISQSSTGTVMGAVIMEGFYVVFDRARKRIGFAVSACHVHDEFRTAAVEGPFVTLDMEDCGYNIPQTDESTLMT

Compound CCCc1cc(C2(c3ccc(OC(F)F)c(C)c3)N=C(N)N(C)C2=O)ccn1 (stereo not shown) [FAH-80] has an IC50 (BACE1; [4]) of 1.67 µM.
With CNCCc1cccc(C2(c3ccc(OC(F)F)c(C)c3)N=C(N)N(C)C2=O)c1 (stereo not shown) [FAH-63] the PAMPA [1] was 0.36 and the IC50 (BACE1; [4]) was 1.18 µM.
COc1ccc(C2(c3cc(F)cc(F)c3)N=C(N)N(C)C2=O)cc1F (stereo not shown) [FAH-12] showed an IC50 (BACE1; [4]) of 2.6 µM.
Compound COCc1cc(C2(c3ccc(OC(F)F)c(C)c3)N=C(N)N(C)C2=O)ccn1 (stereo not shown) [FAH-53] has an IC50 (BACE1; [4]) of 1.9 µM and an IC50 (BACE1; [5]) of 2 µM.
In the case of CCCC1CC(C2(c3ccc(OC(F)F)c(C)c3)N=C(N)N(C)C2=O)CCN1 (stereo not shown) [FAH-81], the IC50 (BACE1; [4]) is reported as 14.9 µM.
With CN1C(=O)C(c2ccccc2)(c2cc(F)cc(F)c2)N=C1N (stereo not shown) [FAH-01] the IC50 (BACE1; [4]) was 2.67 µM and 4.7 µM.
For Cc1cc(C2(c3ccc(OC(F)F)c(C)c3)N=C(N)N(C)C2=O)ccn1 (stereo not shown) [FAH-47], the IC50 (BACE1; [4]) was 1.4 µM and the IC50 (BACE1; [5]) was 1.4 µM.
Compound COc1ccc(C2(c3cc(C)c(F)cc3F)N=C(N)N(C)C2=O)cc1C (stereo not shown) [FAH-09] has an IC50 (BACE1; [4]) of 1.4 µM.
In the case of COc1ccc(C2(c3ccc(F)cc3F)N=C(N)N(C)C2=O)cc1C (stereo not shown) [FAH-08], the IC50 (BACE1; [4]) is reported as 2.3 µM.
Work on CN1C(=O)C(c2cc(F)cc(F)c2)(c2ccc(F)c(F)c2)N=C1N (stereo not shown) [FAH-14] yielded an IC50 (BACE1; [4]) of 1.5 µM.
With Cc1cc(C2(c3cccc(F)c3)N=C(N)N(Cc3ccccc3)C2=O)ccc1OC(F)F (stereo not shown) [FAH-42] the IC50 (BACE1; [4]) was 2.3 µM and 2.7 µM.
For Cc1cc(C2(c3cccc(C(F)(F)F)c3)N=C(N)N(C)C2=O)ccc1OC(F)F (stereo not shown) [FAH-28], the IC50 (BACE1; [4]) was 0.38 µM and the IC50 (BACE1; [5]) was 0.38 µM.
Cc1cc(C2(c3ccncc3)N=C(N)N(C)C2=O)ccc1OC(F)F (stereo not shown) [FAH-78] showed an IC50 (BACE1; [4]) of 2.73 µM.
Work on CN1C(=O)C(c2cc(F)cc(F)c2)(c2ccnc(F)c2)N=C1N (stereo not shown) [FAH-15] yielded an IC50 (BACE1; [4]) of 2 µM.
With Cc1cc(C2(c3cccc(-c4cccnc4)c3)N=C(N)N(C)C2=O)ccc1OC(F)F (stereo not shown) [FAH-32] the sAPPα formation ([2]; in words, FIG. 1D) was “increased sAPPα formation as compared to FAH17”, the sAPPβ formation ([2]; in words, FIG. 1D) was “reduced as compared to FAH17” and the “Aβ1-42 peptide formation / production” value ([2]; in words) was “substantially reduced”. For the same compound, the “preference (selectivity) towards APP in BACE inhibition” value ([2]; in words) was “higher selectivity of FAH32 towards APP”, the Sol (solubility (Sol)) was “Sol: good” and the IC50 (BACE1; Table 3, read-out: IC50) was ~0.06 µM. The IC50 (BACE1; [4]) was 0.07 µM and 0.05 µM, the IC50 (BACE1; [5]) was 0.07 µM and the Cmax brain ([3]; 10 mg/kg 5Q) was <0.02 µM.
In the case of Cc1cc(C2(c3cncc(F)c3)N=C(N)N(C)C2=O)ccc1OC(F)F (stereo not shown) [FAH-37], the Sol (solubility (Sol)) is reported as “good”, the IC50 (BACE1; Table 3, read-out: IC50) is reported as ~5.3 µM and the IC50 (BACE1; [5]) is reported as 5.3 µM. The “reducing BACE activity in vitro” value (BACE1; in words, FIG. 2B) was “less effective” and the Cmax brain ([3]; (IP), no unit in the cell, neighbours μM) was ~0.11 (IP).
Work on Cc1cccc(C2(c3ccc(OC(F)F)c(C)c3)N=C(N)N(C)C2=O)c1 (stereo not shown) [FAH-27] yielded an IC50 (BACE1; [4]) of 0.13 µM and an IC50 (BACE1; [5]) of 0.13 µM.
In the case of Cc1cc(C2(c3cc(-c4cccnc4)ccn3)N=C(N)N(C)C2=O)ccc1OC(F)F (stereo not shown) [FAH-65], the “Aβ1-42 peptide formation / production” value ([2]; in words) is reported as “strongly reduces” and the “preference (selectivity) towards APP in BACE inhibition” value ([2]; in words) is reported as “clear preference towards APP”.
Cc1cc(C2(c3cnn(C)c3)N=C(N)N(C)C2=O)ccc1OC(F)F (stereo not shown) [30 HCl] showed an IC50 (BACE1; [5]) of 2 µM.
For CNCc1cccc(C2(c3ccc(OC(F)F)c(C)c3)N=C(N)N(C)C2=O)c1 (stereo not shown) [FAH-62], the Sol (solubility (Sol)) was “excellent”, the IC50 (BACE1; Table 3, read-out: IC50) was ~0.06 µM and the IC50 (BACE1; [4]) was 0.37 µM. For the same compound, the IC50 (BACE1; [5]) was 0.6 µM.
For Cc1cc(F)cc(C2(c3ccc(OC(F)F)c(C)c3)N=C(N)N(C)C2=O)c1 (stereo not shown) [FAH-22], the sAPPbeta ([2]; Secondary (1st test, n = 3), ↓ = decrease) was “↓>20%”.
Cc1cc(C2(c3cccc(C(C)C)c3)N=C(N)N(C)C2=O)ccc1OC(F)F (stereo not shown) [FAH-29] showed an IC50 (BACE1; [4]) of 11 µM.
